# Values of other authors as cited in paper PMC6156206 (Molecular Imaging, 2018).
# Tests used:
# [1] = phase 1/1b safety profile analysis
# [2] = tested on: BRAF^V600E-mutant melanoma xenografts; settings: oral, 30-100 mg/kg, twice daily, without any adverse effects
# [3] = tested on: P-gp/BCRP
SMILES,Tolerable dose in patients [1],Antitumor effect in xenografts [2],Substrate for the drug efflux transporter system P-gp/BCRP [3]
"COc1cc2ncnc(Oc3cccc(NC(=O)Nc4cc(C(C)(C)C(F)(F)F)on4)c3)c2cc1OC.Cl [CEP-32496, 1-(3-(6,7-dimethoxyquinazolin-4-yloxy)phenyl)-3-(5-(1,1,1-trifluoro-2-methylpropan-2-yl)isoxazol-3-yl)urea hydrochloride]",up to 350 mg/d,tumor stasis and regression,–
CNC(=O)c1cc(Oc2ccc(NC(=O)Nc3ccc(Cl)c(C(F)(F)F)c3)cc2)ccn1 [sorafenib],–,–,substrate for the drug efflux transporter system P-gp/BCRP
